Assay results from the supplement of paper PMC10307832.

Legend:
Test in all cases: relative viability (nuclei count vs DMSO), 5 days (fraction); higher = more cells survive
NCI-H1734 = system: NCI-H1734
Outline: (§1)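 After 5 days of treatment, lung cancer cells in 1536-well plates were fixed and stained in a single step (final 0.05% Triton X-100, 1% formaldehyde, 1 ug/ml Hoechst) and their nuclei counted on 4× images. Treatment had been applied by pin tool the day after seeding as one drug alone or as a fixed anchor-drug dose with five library-drug doses (not always all listed) in √10 steps. Relative viability is the nuclei count of treated wells divided by that of vehicle wells, and values are medians of duplicate plates.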

PC-3 [JPC-3] = system: PC-3 [JPC-3]
Outline: as §1

NCI-H460 = system: NCI-H460
Outline: as §1

HCC-366 = system: HCC-366
Outline: as §1

NCI-H1651 = system: NCI-H1651
Outline: as §1

LOU-NH91 = system: LOU-NH91
Outline: as §1

NCI-H2087 = system: NCI-H2087
Outline: as §1

NCI-H2228 = system: NCI-H2228
Outline: as §1

ChaGo-K-1 = system: ChaGo-K-1
Outline: as §1

NCI-H2170 = system: NCI-H2170
Outline: as §1

CAL-12T = system: CAL-12T
Outline: as §1

NCI-H1755 = system: NCI-H1755
Outline: as §1

UMC-11 = system: UMC-11
Outline: as §1

NCI-H1793 = system: NCI-H1793
Outline: as §1

NCI-H1944 = system: NCI-H1944
Outline: as §1

EPLC-272H = system: EPLC-272H
Outline: as §1

RERF-LC-KJ = system: RERF-LC-KJ
Outline: as §1

NCI-H1395 = system: NCI-H1395
Outline: as §1

HCC-78 = system: HCC-78
Outline: as §1

LC-2-ad = system: LC-2-ad
Outline: as §1

ABC-1 = system: ABC-1
Outline: as §1

LU99A = system: LU99A
Outline: as §1

NCI-H3122 = system: NCI-H3122
Outline: as §1

NCI-H2405 = system: NCI-H2405
Outline: as §1

SMILES: Clc1ccc(Nc2nnc(Cc3ccncc3)c3ccccc23)cc1 [Vatalanib] + CS(=O)(=O)N1CCN(Cc2cc3nc(-c4cccc5[nH]ncc45)nc(N4CCOCC4)c3s2)CC1 [Pictilisib] (partner 1 µM)
- relative viability (NCI-H1734; first compound 0.04 µM): 0.478
- relative viability (NCI-H1734; first compound 0.1265 µM): 0.471
- relative viability (NCI-H1734; first compound 0.4 µM): 0.503
- relative viability (NCI-H1734; first compound 1.265 µM): 0.45
- relative viability (NCI-H1734; first compound 4 µM): 0.465
- relative viability (PC-3 [JPC-3]; first compound 0.04 µM): 0.796
- relative viability (PC-3 [JPC-3]; first compound 0.1265 µM): 0.715
- relative viability (PC-3 [JPC-3]; first compound 0.4 µM): 0.645
- relative viability (PC-3 [JPC-3]; first compound 1.265 µM): 0.726
- relative viability (PC-3 [JPC-3]; first compound 4 µM): 0.752
- relative viability (NCI-H460; first compound 0.04 µM): 0.361
- relative viability (NCI-H460; first compound 0.1265 µM): 0.356
- relative viability (NCI-H460; first compound 0.4 µM): 0.378
- relative viability (NCI-H460; first compound 1.265 µM): 0.352
- relative viability (NCI-H460; first compound 4 µM): 0.312
- relative viability (HCC-366; first compound 0.04 µM): 0.137
- relative viability (HCC-366; first compound 0.1265 µM): 0.196
- relative viability (HCC-366; first compound 0.4 µM): 0.131
- relative viability (HCC-366; first compound 1.265 µM): 0.0986
- relative viability (HCC-366; first compound 4 µM): 0.11
- relative viability (NCI-H1651; first compound 0.04 µM): 0.646
- relative viability (NCI-H1651; first compound 0.1265 µM): 0.276
- relative viability (NCI-H1651; first compound 0.4 µM): 0.642
- relative viability (NCI-H1651; first compound 1.265 µM): 0.511
- relative viability (NCI-H1651; first compound 4 µM): 0.594
- relative viability (LOU-NH91; first compound 0.04 µM): 0.512
- relative viability (LOU-NH91; first compound 0.1265 µM): 0.541
- relative viability (LOU-NH91; first compound 0.4 µM): 0.461
- relative viability (LOU-NH91; first compound 1.265 µM): 0.503
- relative viability (LOU-NH91; first compound 4 µM): 0.517
- relative viability (NCI-H2087; first compound 0.04 µM): 0.871
- relative viability (NCI-H2087; first compound 0.1265 µM): 0.752
- relative viability (NCI-H2087; first compound 0.4 µM): 1.15
- relative viability (NCI-H2087; first compound 1.265 µM): 0.826
- relative viability (NCI-H2087; first compound 4 µM): 0.931
- relative viability (NCI-H2228; first compound 0.04 µM): 0.313
- relative viability (NCI-H2228; first compound 0.1265 µM): 0.432
- relative viability (NCI-H2228; first compound 0.4 µM): 0.317
- relative viability (NCI-H2228; first compound 1.265 µM): 0.379
- relative viability (NCI-H2228; first compound 4 µM): 0.432
- relative viability (ChaGo-K-1; first compound 0.04 µM): 0.418
- relative viability (ChaGo-K-1; first compound 0.1265 µM): 0.719
- relative viability (ChaGo-K-1; first compound 1.265 µM): 0.687
- relative viability (ChaGo-K-1; first compound 4 µM): 0.787
- relative viability (NCI-H2170; first compound 0.04 µM): 0.319
- relative viability (NCI-H2170; first compound 0.1265 µM): 0.331
- relative viability (NCI-H2170; first compound 0.4 µM): 0.329
- relative viability (NCI-H2170; first compound 1.265 µM): 0.356
- relative viability (NCI-H2170; first compound 4 µM): 0.306
- relative viability (CAL-12T; first compound 0.04 µM): 0.238
- relative viability (CAL-12T; first compound 0.1265 µM): 0.39
- relative viability (CAL-12T; first compound 1.265 µM): 0.446
- relative viability (CAL-12T; first compound 4 µM): 0.463
- relative viability (NCI-H1755; first compound 0.04 µM): 0.405
- relative viability (NCI-H1755; first compound 0.1265 µM): 0.395
- relative viability (NCI-H1755; first compound 0.4 µM): 0.453
- relative viability (NCI-H1755; first compound 1.265 µM): 0.387
- relative viability (NCI-H1755; first compound 4 µM): 0.383
- relative viability (UMC-11; first compound 0.04 µM): 0.814
- relative viability (UMC-11; first compound 0.1265 µM): 0.746
- relative viability (UMC-11; first compound 0.4 µM): 0.875
- relative viability (UMC-11; first compound 1.265 µM): 0.79
- relative viability (UMC-11; first compound 4 µM): 0.794
- relative viability (NCI-H1793; first compound 0.04 µM): 0.218
- relative viability (NCI-H1793; first compound 0.1265 µM): 0.326
- relative viability (NCI-H1793; first compound 0.4 µM): 0.382
- relative viability (NCI-H1793; first compound 1.265 µM): 0.293
- relative viability (NCI-H1793; first compound 4 µM): 0.347
- relative viability (NCI-H1944; first compound 0.04 µM): 0.351
- relative viability (NCI-H1944; first compound 0.1265 µM): 0.316
- relative viability (NCI-H1944; first compound 0.4 µM): 0.37
- relative viability (NCI-H1944; first compound 1.265 µM): 0.356
- relative viability (NCI-H1944; first compound 4 µM): 0.352
- relative viability (EPLC-272H; first compound 0.04 µM): 0.35
- relative viability (EPLC-272H; first compound 0.1265 µM): 0.309
- relative viability (EPLC-272H; first compound 0.4 µM): 0.151
- relative viability (EPLC-272H; first compound 1.265 µM): 0.332
- relative viability (EPLC-272H; first compound 4 µM): 0.344
- relative viability (RERF-LC-KJ; first compound 0.04 µM): 0.486
- relative viability (RERF-LC-KJ; first compound 0.1265 µM): 0.579
- relative viability (RERF-LC-KJ; first compound 0.4 µM): 0.745
- relative viability (RERF-LC-KJ; first compound 1.265 µM): 0.422
- relative viability (RERF-LC-KJ; first compound 4 µM): 0.481
- relative viability (NCI-H1395; first compound 0.04 µM): 0.814
- relative viability (NCI-H1395; first compound 0.1265 µM): 0.55
- relative viability (NCI-H1395; first compound 0.4 µM): 0.525
- relative viability (NCI-H1395; first compound 1.265 µM): 0.538
- relative viability (NCI-H1395; first compound 4 µM): 0.616
- relative viability (HCC-78; first compound 0.04 µM): 0.199
- relative viability (HCC-78; first compound 0.1265 µM): 0.172
- relative viability (HCC-78; first compound 0.4 µM): 0.183
- relative viability (HCC-78; first compound 4 µM): 0.196
- relative viability (LC-2-ad; first compound 0.04 µM): 0.574
- relative viability (LC-2-ad; first compound 0.1265 µM): 0.551
- relative viability (LC-2-ad; first compound 0.4 µM): 0.559
- relative viability (LC-2-ad; first compound 1.265 µM): 0.509
- relative viability (LC-2-ad; first compound 4 µM): 0.645
- relative viability (ABC-1; first compound 0.04 µM): 0.888
- relative viability (ABC-1; first compound 0.1265 µM): 0.78
- relative viability (ABC-1; first compound 0.4 µM): 0.877
- relative viability (ABC-1; first compound 1.265 µM): 0.71
- relative viability (ABC-1; first compound 4 µM): 0.784
- relative viability (LU99A; first compound 0.04 µM): 0.34
- relative viability (LU99A; first compound 0.1265 µM): 0.306
- relative viability (LU99A; first compound 0.4 µM): 0.375
- relative viability (LU99A; first compound 1.265 µM): 0.306
- relative viability (LU99A; first compound 4 µM): 0.312
- relative viability (NCI-H3122; first compound 0.04 µM): 0.66
- relative viability (NCI-H3122; first compound 0.1265 µM): 0.534
- relative viability (NCI-H3122; first compound 0.4 µM): 0.646
- relative viability (NCI-H3122; first compound 1.265 µM): 0.573
- relative viability (NCI-H3122; first compound 4 µM): 0.593
- relative viability (NCI-H2405; first compound 0.04 µM): 0.506
- relative viability (NCI-H2405; first compound 0.1265 µM): 0.429
- relative viability (NCI-H2405; first compound 1.265 µM): 0.352
- relative viability (NCI-H2405; first compound 4 µM): 0.493
